Measured values: article PMC7473772 (eLife, 2020)
Numbering of substitutions follows the chain as printed. Several values for one entry are separate records, joined by “and”; a condition that tells them apart may be missing. Equal values may be shown once.

Experiments:
[1] = target: T1, tbaqp1-2-3 null cells expressing TbAQP2 WT or Trp/Met mutants (Trypanosoma brucei brucei, UniProt Q6ZXT3, L218W); assay type: cell-based; settings: AQP2 mutant L218W
T1 sequence (Q6ZXT3 1-312 L218W): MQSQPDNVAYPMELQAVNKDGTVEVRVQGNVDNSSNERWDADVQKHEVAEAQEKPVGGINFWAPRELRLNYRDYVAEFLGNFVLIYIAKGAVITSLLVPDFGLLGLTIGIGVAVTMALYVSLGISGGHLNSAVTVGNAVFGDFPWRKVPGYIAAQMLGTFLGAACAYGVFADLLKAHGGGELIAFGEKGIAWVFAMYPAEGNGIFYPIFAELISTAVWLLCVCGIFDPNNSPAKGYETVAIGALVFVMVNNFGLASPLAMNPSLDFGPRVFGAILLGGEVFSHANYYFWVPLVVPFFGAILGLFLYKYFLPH

[2] = target: T2, tbaqp1-2-3 null cells expressing TbAQP2 WT or Trp/Met mutants (Trypanosoma brucei brucei, UniProt Q6ZXT3, L118W); assay type: cell-based; settings: AQP2 mutant L118W
T2 sequence (Q6ZXT3 1-312 L118W): T1 sequence (Q6ZXT3 1-312 L218W) with L118W, W218L

[3] = test system: tbaqp1-2-3 null cells expressing TbAQP2 WT or Trp/Met mutants; assay type: cell-based, Trypanosoma brucei brucei; settings: triple KO AQP1-3
[4] = target: tbaqp1-2-3 null cells expressing TbAQP2 WT or Trp/Met mutants (Trypanosoma brucei brucei, UniProt Q6ZXT3); assay type: cell-based; settings: + AQP2 WT
[5] = target: T3, tbaqp1-2-3 null cells expressing TbAQP2 WT or Trp/Met mutants (Trypanosoma brucei brucei, UniProt Q6ZXT3, L84W); assay type: cell-based; settings: AQP2 mutant L84W
T3 sequence (Q6ZXT3 1-312 L84W): T1 sequence (Q6ZXT3 1-312 L218W) with L84W, W218L

[6] = target: T4, tbaqp1-2-3 null cells expressing TbAQP2 WT or Trp/Met mutants (Trypanosoma brucei brucei, UniProt Q6ZXT3, L218M); assay type: cell-based; settings: AQP2 mutant L218M
T4 sequence (Q6ZXT3 1-312 L218M): T1 sequence (Q6ZXT3 1-312 L218W) with W218M

[7] = target: T5, tbaqp1-2-3 null cells expressing TbAQP2 WT or Trp/Met mutants (Trypanosoma brucei brucei, UniProt Q6ZXT3, L118M); assay type: cell-based; settings: AQP2 mutant L118M
T5 sequence (Q6ZXT3 1-312 L118M): T1 sequence (Q6ZXT3 1-312 L218W) with L118M, W218L

[8] = target: T6, tbaqp1-2-3 null cells expressing TbAQP2 WT or Trp/Met mutants (Trypanosoma brucei brucei, UniProt Q6ZXT3, L84M); assay type: cell-based; settings: AQP2 mutant L84M
T6 sequence (Q6ZXT3 1-312 L84M): T1 sequence (Q6ZXT3 1-312 L218W) with L84M, W218L

[9] = target: T7, tbaqp1-2-3 null cells expressing TbAQP2 WT or Trp/Met mutants (Trypanosoma brucei brucei, UniProt Q6ZXT3, L118W/L84W); assay type: cell-based; settings: AQP2 mutant L84W/L118W
T7 sequence (Q6ZXT3 1-312 L84W/L118W): T1 sequence (Q6ZXT3 1-312 L218W) with L84W, L118W, W218L

OCC(O)CO [Glycerol]
Glycerol uptake, percent of + AQP2 WT, single replicates [1]: 75.79% of + AQP2 WT and 58.22% of + AQP2 WT and 78.07% of + AQP2 WT | Glycerol uptake, single replicates ([1]; exp HK1560): 13962.75 dpm and 12032 dpm and 15866.50 dpm | Glycerol uptake, AVG ([1]; n=3): 13954 dpm | Glycerol uptake, percent of + AQP2 WT, AVG ([1]; n=3): 70.7% of + AQP2 WT | Glycerol uptake, percent of + AQP2 WT, single replicates [2]: 36.39% of + AQP2 WT and 32.80% of + AQP2 WT and 32.53% of + AQP2 WT | Glycerol uptake, single replicates ([2]; exp HK1560): 6704.25 dpm and 6779.50 dpm and 6612.25 dpm | Glycerol uptake, AVG ([2]; n=3): 6699 dpm | Glycerol uptake, percent of + AQP2 WT, AVG ([2]; n=3): 33.9% of + AQP2 WT | Glycerol uptake, percent of + AQP2 WT, single replicates [3]: 18.67% of + AQP2 WT and 17.85% of + AQP2 WT and 11.96% of + AQP2 WT | Glycerol uptake, single replicates ([3]; exp HK1560): 3439.75 dpm and 3689.75 dpm and 2430 dpm | Glycerol uptake, AVG ([3]; n=3): 3187 dpm | Glycerol uptake, percent of + AQP2 WT, AVG ([3]; n=3): 16.2% of + AQP2 WT | Glycerol uptake, percent of + AQP2 WT, single replicates [4]: 100.00% of + AQP2 WT | Glycerol uptake, percent of + AQP2 WT, AVG ([4]; n=3): 100.0% of + AQP2 WT | Glycerol uptake, percent of + AQP2 WT, single replicates [5]: 55.50% of + AQP2 WT and 63.99% of + AQP2 WT and 46.33% of + AQP2 WT | Glycerol uptake, single replicates ([5]; exp HK1560): 10224.8 dpm and 13226.00 dpm and 9416.00 dpm | Glycerol uptake, AVG ([5]; n=3): 10956 dpm | Glycerol uptake, percent of + AQP2 WT, AVG ([5]; n=3): 55.3% of + AQP2 WT | Glycerol uptake, percent of + AQP2 WT, single replicates [6]: 85.78% of + AQP2 WT and 59.96% of + AQP2 WT and 82.90% of + AQP2 WT | Glycerol uptake, single replicates ([6]; exp HK1560): 15802.25 dpm and 12393.00 dpm and 16849.00 dpm | Glycerol uptake, AVG ([6]; n=3): 15015 dpm | Glycerol uptake, percent of + AQP2 WT, AVG ([6]; n=3): 76.2% of + AQP2 WT | Glycerol uptake, percent of + AQP2 WT, single replicates [7]: 62.48% of + AQP2 WT and 49.85% of + AQP2 WT | Glycerol uptake, single replicates ([7]; exp HK1560): 11510.33 dpm and 10303.00 dpm | Glycerol uptake, percent of + AQP2 WT, AVG ([7]; n=2): 56.2% of + AQP2 WT | Glycerol uptake, percent of + AQP2 WT, single replicates [8]: 71.54% of + AQP2 WT and 78.57% of + AQP2 WT and 85.30% of + AQP2 WT | Glycerol uptake, single replicates ([8]; exp HK1560): 13178.67 dpm and 16239.50 dpm and 17336.50 dpm | Glycerol uptake, AVG ([8]; n=3): 15585 dpm | Glycerol uptake, percent of + AQP2 WT, AVG ([8]; n=3): 78.5% of + AQP2 WT | Glycerol uptake, percent of + AQP2 WT, single replicates [9]: 26.06% of + AQP2 WT and 22.48% of + AQP2 WT and 15.25% of + AQP2 WT | Glycerol uptake, single replicates ([9]; exp HK1560): 4801.50 dpm and 4646.75 dpm and 3099.50 dpm | Glycerol uptake, AVG ([9]; n=3): 4183 dpm | Glycerol uptake, percent of + AQP2 WT, AVG ([9]; n=3): 21.3% of + AQP2 WT
